Results taken from PubChem BioAssay AID330 (DTP/NCI, 2004).
Where “and” joins values, the source holds several entries; their conditions need not be identical. Equal values may be shown once. Inconclusive results and toxic doses are left out. Rule for the calls: active = survival T/C of 150% or more; inactive = T/C below 125% in these data.

System: P388 leukemia ip, CD2F1 mice, survival T/C
Experiment: NCI In Vivo Anticancer Drug Screen. Data for tumor model P388 Leukemia (intraperitoneal) in CD2F1 (CDF1) mice
Details: endpoint: median survival time, higher = longer survival
Outline: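 Mice carrying the transplanted tumor received test compound or vehicle. Survival was recorded in each group, and the value is the treated-group measurement divided by that of the vehicle-treated control group.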

[1] = dose: 100.0 mg/kg/injection, schedule: Q01DX005 (ip), vehicle: saline
[2] = dose: 60.0 mg/kg/injection, schedule: Q01DX005 (ip), vehicle: saline with Tween-80
[3] = dose: 120.0 mg/kg/injection, schedule: Q01DX005 (ip), vehicle: saline with Tween-80
[4] = dose: 240.0 mg/kg/injection, schedule: Q01DX005 (ip), vehicle: saline with Tween-80
[5] = dose: 25.0 mg/kg/injection, schedule: Q01DX009 (ip), vehicle: water
[6] = dose: 50.0 mg/kg/injection, schedule: Q01DX005 (ip), vehicle: Klucel (hydroxypropylcellulose) (HPC)
[7] = dose: 100.0 mg/kg/injection, schedule: Q01DX005 (ip), vehicle: Klucel (hydroxypropylcellulose) (HPC)
[8] = dose: 200.0 mg/kg/injection, schedule: Q01DX005 (ip), vehicle: Klucel (hydroxypropylcellulose) (HPC)
[9] = dose: 25.0 mg/kg/injection, schedule: Q01DX005 (ip), vehicle: Klucel (hydroxypropylcellulose) (HPC)
[10] = dose: 12.5 mg/kg/injection, schedule: Q01DX005 (ip), vehicle: Klucel (hydroxypropylcellulose) (HPC)
[11] = dose: 25.0 mg/kg/injection, schedule: Q01DX001 (ip), vehicle: Klucel (hydroxypropylcellulose) (HPC)
[12] = dose: 50.0 mg/kg/injection, schedule: Q01DX009 (ip), vehicle: Klucel (hydroxypropylcellulose) (HPC)
[13] = dose: 100.0 mg/kg/injection, schedule: Q01DX009 (ip), vehicle: Klucel (hydroxypropylcellulose) (HPC)

Measured: T/C

C[CH2][Sn]([CH2]C)([CH2]CC(=O)OC)[CH2]CC(=O)OC
inactive: dose: 12.5 mg/kg/injection, schedule: Q01DX005 (ip), vehicle: saline 113 % of control | dose: 25.0 mg/kg/injection, schedule: Q01DX005 (ip), vehicle: saline 120 % of control | [1] 119 % of control

CN(C)CCn1ncc(Sc2cc([N+](=O)[O-])ccc2N)c(Cl)c1=O
inactive: [2] 103 % of control | [3] 96 % of control | [4] 97 % of control

COc1cccc2c1C(=O)c1c(O)c3c(c(O)c1C2=O)C[C@@](O)(C(C)O)C[C@@H]3OC1CC(N(Cc2ccccc2)Cc2ccccc2)C(O)C(C)O1 (stereo partly specified)
active: dose: 6.25 mg/kg/injection, schedule: Q01DX009 (ip), vehicle: water 165 % of control | dose: 12.5 mg/kg/injection, schedule: Q01DX009 (ip), vehicle: water 228 % of control and 233 % of control | dose: 25.0 mg/kg/injection, schedule: Q04DX003 (ip), vehicle: water 194 % of control | dose: 50.0 mg/kg/injection, schedule: Q04DX003 (ip), vehicle: water 233 % of control
inactive: dose: 4.7 mg/kg/injection, schedule: Q04DX003 (ip), vehicle: water 121 % of control | [5] 97 % of control | dose: 37.5 mg/kg/injection, schedule: Q04DX003 (ip), vehicle: water 106 % of control | dose: 75.0 mg/kg/injection, schedule: Q04DX003 (ip), vehicle: water 116 % of control

O=C(O)C(=O)O.[Cu+2].[NH-]C1CCCC2CCC[N-]C12 (stereo unspecified)
inactive: dose: 7.5 mg/kg/injection, schedule: Q04DX002 (ip), vehicle: suspension in saline 89 % of control | dose: 15.0 mg/kg/injection, schedule: Q04DX002 (ip), vehicle: suspension in saline 92 % of control | dose: 30.0 mg/kg/injection, schedule: Q04DX002 (ip), vehicle: suspension in saline 90 % of control

NC1=NN(S(=O)(=O)c2ccc(Cl)cc2)CC1
inactive: [6] 96 % of control | [7] 88 % of control | [8] 90 % of control

Cc1ccc(NCCN(C)CC(C)O)c2c(=O)c3ccc(Cl)cc3sc12 (stereo unspecified)
inactive: [6] 102 % of control | [7] 101 % of control | [8] 95 % of control

CC(C(=O)c1ccc(Cl)cc1)C1=NC2NN(c3ccccc3)C(=O)C2=C1C(C)C(=O)c1ccc(Cl)cc1 (stereo unspecified)
inactive: [2] 99 % of control | [3] 101 % of control | [4] 100 % of control

CCOc1cc2c(cc1C(C)c1ccc(Cl)cc1)OCO2 (stereo unspecified)
inactive: dose: 50.0 mg/kg/injection, schedule: Q01DX005 (ip), vehicle: saline with Tween-80 93 % of control | dose: 100.0 mg/kg/injection, schedule: Q01DX005 (ip), vehicle: saline with Tween-80 99 % of control | dose: 200.0 mg/kg/injection, schedule: Q01DX005 (ip), vehicle: saline with Tween-80 93 % of control

CC1(C)C(C=O)=CCC1CC(N)=O (stereo unspecified)
inactive: [2] 117 % of control | [3] 111 % of control

N=C(N)c1ccc2cc(C(=N)N)[nH]c2c1
inactive: dose: 6.25 mg/kg/injection, schedule: Q04DX003 (ip), vehicle: saline 100 % of control | dose: 12.5 mg/kg/injection, schedule: Q04DX003 (ip), vehicle: saline 100 % of control | dose: 25.0 mg/kg/injection, schedule: Q04DX003 (ip), vehicle: saline 107 % of control

CCCCCCCCN=Cc1c(O)c(O)c(C(C)C)c2cc(C)c(-c3c(C)cc4c(C(C)C)c(O)c(O)c(C=NCCCCCCCC)c4c3O)c(O)c12
inactive: [9] 95 % of control | [6] 98 % of control | [7] 98 % of control | [8] 93 % of control

CC(=O)Nc1ccc(C(=O)N/N=C/c2ccc(O)cc2)cc1
inactive: dose: 50.0 mg/kg/injection, schedule: Q01DX005 (ip), vehicle: saline 99 % of control | [1] 102 % of control | dose: 200.0 mg/kg/injection, schedule: Q01DX005 (ip), vehicle: saline 100 % of control

NCCSSc1ccccc1[N+](=O)[O-]
inactive: [10] 98 % of control | [9] 94 % of control | [6] 98 % of control and 90 % of control

COc1cc(CC2C(=O)OCC2C(=O)c2ccc3c(c2)OCO3)cc(OC)c1OC (stereo unspecified)
inactive: [10] 102 % of control | [9] 102 % of control | [6] 91 % of control and 93 % of control | [7] 98 % of control | [8] 98 % of control

CCCCC1CCC(=O)NC1=O (stereo unspecified)
inactive: [2] 107 % of control | [3] 103 % of control | [4] 107 % of control

CCOC(=O)CC(=O)C(F)(F)F.[Cu+2]
inactive: dose: 2.5 mg/kg/injection, schedule: Q01DX009 (ip), vehicle: saline with Tween-80 100 % of control | dose: 5.0 mg/kg/injection, schedule: Q01DX009 (ip), vehicle: saline with Tween-80 115 % of control | dose: 10.0 mg/kg/injection, schedule: Q01DX009 (ip), vehicle: saline with Tween-80 110 % of control

O=C1c2ccccc2C(=O)C1NOCCCCl
inactive: dose: 60.0 mg/kg/injection, schedule: Q01DX005 (ip), vehicle: Klucel (hydroxypropylcellulose) (HPC) 100 % of control | dose: 120.0 mg/kg/injection, schedule: Q01DX005 (ip), vehicle: Klucel (hydroxypropylcellulose) (HPC) 99 % of control | dose: 240.0 mg/kg/injection, schedule: Q01DX005 (ip), vehicle: Klucel (hydroxypropylcellulose) (HPC) 101 % of control

O=[N+]([O-])c1ccc(N2C(c3ccccc3)=N[C@@H](N3CCOCC3)[C@@H]2N2CCOCC2)cc1
inactive: [6] 101 % of control | [7] 97 % of control | [8] 95 % of control

CCOC(=O)/C(=C(/[S-])SC)[n+]1ccc(C)cc1
inactive: dose: 100.0 mg/kg/injection, schedule: Q04DX002 (ip), vehicle: saline with Tween-80 101 % of control | dose: 200.0 mg/kg/injection, schedule: Q04DX002 (ip), vehicle: saline with Tween-80 99 % of control

CC(=O)NC(C)CC1=CC(=O)C(C)=CC1=O (stereo unspecified)
inactive: [11] 95 % of control

CN1C(=O)C2CC(O)C(SC3CC4C(=O)N(C)C(=O)C4CC3O)CC2C1=O (stereo unspecified)
inactive: [5] 98 % of control | dose: 50.0 mg/kg/injection, schedule: Q01DX009 (ip), vehicle: water 100 % of control | dose: 100.0 mg/kg/injection, schedule: Q01DX009 (ip), vehicle: water 98 % of control | dose: 200.0 mg/kg/injection, schedule: Q01DX009 (ip), vehicle: water 98 % of control

Cc1ccc2c(c1)CCCN2C=O
inactive: dose: 50.0 mg/kg/injection, schedule: Q04DX003 (ip), vehicle: saline with Tween-80 105 % of control | dose: 100.0 mg/kg/injection, schedule: Q04DX003 (ip), vehicle: saline with Tween-80 100 % of control | dose: 200.0 mg/kg/injection, schedule: Q04DX003 (ip), vehicle: saline with Tween-80 110 % of control

[B-]([C+]1CCCCC1)N1C=CC=CC1
inactive: [6] 100 % of control | [7] 98 % of control | [8] 97 % of control

CCOC(=O)CSc1nnc(-c2cc(OC)c(OC)c(OC)c2)o1
inactive: dose: 100.0 mg/kg/injection, schedule: Q01DX001 (ip), vehicle: Klucel (hydroxypropylcellulose) (HPC) 98 % of control | dose: 200.0 mg/kg/injection, schedule: Q01DX001 (ip), vehicle: Klucel (hydroxypropylcellulose) (HPC) 104 % of control | dose: 400.0 mg/kg/injection, schedule: Q01DX001 (ip), vehicle: Klucel (hydroxypropylcellulose) (HPC) 92 % of control

CCOC(=O)COc1cc2c(cc1C(C)c1ccc(OC)c(OC)c1)OCO2 (stereo unspecified)
inactive: dose: 50.0 mg/kg/injection, schedule: Q01DX005 (ip), vehicle: distilled water + Tween-80 90 % of control | dose: 100.0 mg/kg/injection, schedule: Q01DX005 (ip), vehicle: distilled water + Tween-80 91 % of control | dose: 200.0 mg/kg/injection, schedule: Q01DX005 (ip), vehicle: distilled water + Tween-80 86 % of control

O=C1NC(=O)C23CC=CCC12CCCC3 (stereo unspecified)
inactive: [12] 101 % of control | [13] 100 % of control | dose: 200.0 mg/kg/injection, schedule: Q01DX009 (ip), vehicle: Klucel (hydroxypropylcellulose) (HPC) 100 % of control

COc1nc(N)c2ncn(C3CCCO3)c2n1 (stereo unspecified)
inactive: dose: 12.5 mg/kg/injection, schedule: Q01DX001 (ip), vehicle: Klucel (hydroxypropylcellulose) (HPC) 100 % of control | [11] 106 % of control

N/C(=N\OC(=O)Nc1cccc(Cl)c1)C(Cl)(Cl)Cl
inactive: dose: 25.0 mg/kg/injection, schedule: Q01DX009 (ip), vehicle: Klucel (hydroxypropylcellulose) (HPC) 98 % of control | [12] 113 % of control | [13] 112 % of control

O=C(O)c1ccccc1C(=O)OCc1ccccc1
inactive: dose: 100.0 mg/kg/injection, schedule: Q04DX003 (ip), vehicle: Klucel (hydroxypropylcellulose) (HPC) 100 % of control | dose: 200.0 mg/kg/injection, schedule: Q04DX003 (ip), vehicle: Klucel (hydroxypropylcellulose) (HPC) 100 % of control | dose: 400.0 mg/kg/injection, schedule: Q04DX003 (ip), vehicle: Klucel (hydroxypropylcellulose) (HPC) 97 % of control
